For data set [1], the system named is B16M-F10. In words: Growth of hepatic metastases of B16M-F10 in mice. In kind it is in vivo. To be noted: 20 mg/kg i.v. daily x10 days; for Volume of metastases: none 22 ± 4; for Density of metastases: none 27 ± 5. As to the method: (§1) Hepatic metastases were induced by i.v. inoculations (portal vein), in anesthetized mice (Nembutal, 50 mg/kg i.p.), of 4×10^5 viable B16M-F10 cells suspended in 0.2 ml of DMEM. The mice were sacrificed by cervical dislocation 10 days after inoculation. The livers were fixed by immersion for 24 hours at 22° C. in 10% formaldehyde in PBS (pH 7.4), and were subsequently embedded in paraffin. The density of metastases (average number of foci/100 mm^3 of liver detected in fifteen sections of 10×10 mm^2 per liver) and the volume of metastases (average percentage of liver volume occupied by metastases) were determined as described previously (22).
(§2) This methodology makes it possible for the effect of PTER and QUER to be studied in vivo. For this purpose, mice were inoculated with B16M-F10 control cells or B16M-F10/Tet-Bcl-2 which overexpressed Bcl-2. Both subgroups of cells were cultivated beforehand in the absence or in the presence of t-PTER and QUER. B16M-F10 cells were cultivated for 72 hours. t-RESV (12 μM), t-PTER (40 μM), and QUER (20 μM) were added at 6, 30 and 54 hours of culture time, and were present in each case for just 60 minutes. Then they were removed from the culture flasks by washing (3 times with PBS) and the medium was renewed. The levels of Bcl-2 in the B16M-F10 control cells and cells treated with Tet-Bcl-2 were 24±5 and 105±14 units/mg of protein, respectively (n=5 in each case, P<0.01). The number of adhering cells shown in the table was calculated at 60 minutes postinjection (no significant differences were found when the measurements were effected at 30, 120, 180, 240 or 360 minutes postinjection, data not shown). The number of intact cells was calculated at 6 hours postinjection. The experimental microscopy data in vivo are mean values±SD corresponding to 4-5 different experiments. The growth of metastases in the liver was evaluated as stated in the corresponding section of the description, and in this case the mice were treated daily (×10 days) with t-PTER and/or QUER (20 mg/kg of body weight) administered i.v. (the data are mean values±SD corresponding to 25 mice per group). A similar method and equal number of mice per group were used for evaluating the survival of the carrier animals. The test of significance relates, in all the groups, to comparison between cases with PTER and/or QUER and cases without additions (*P<0.05 and **P<0.01), and to comparison between the B16M-F10/Tet-Bcl-2 cells with the B16M-F10 control cells (^+P<0.05, ^++P<0.01). […] This is the first time that the combined administration in vivo of natural polyphenols has induced inhibition of metastatic growth of a highly malignant tumor and an increase in the survival of the carrier.

The subject of data set [2] is B16M-F10/Tet-Bcl-2. In words: Survival of mice carrying B16M-F10/Tet-Bcl-2 metastases. Format: in vivo. To be noted: 20 mg/kg i.v. daily, none 12 ± 1. The method, then: as §1
This methodology makes it possible for the effect of PTER and QUER to be studied in vivo. […] The number of adhering cells shown in the table was calculated at 60 minutes postinjection (no significant differences were found when the measurements were effected at 30, 120, 180, 240 or 360 minutes postinjection, data not shown). The number of intact cells was calculated at 6 hours postinjection. […] The growth of metastases in the liver was evaluated as stated in the corresponding section of the description, and in this case the mice were treated daily (×10 days) with t-PTER and/or QUER (20 mg/kg of body weight) administered i.v. (the data are mean values±SD corresponding to 25 mice per group). […]

Data set [3] deals with B16M-F10 cells. Nature of the data set: In vivo microscopy: B16M-F10 cells adhering to the HSE and intact cells. The conditions noted are these: for Intact cells: B16M-F10, 6 hours postinjection, none 83 ± 14; for Number of cells adhering to the HSE: B16M-F10 precultured with polyphenols, 60 minutes postinjection, none 45 ± 7. The arrangement: species or system mice. The method, then:
as §1, §2

Data set [4] has as its system B16M-F10 cells. In words: Levels of free polyphenols in the incubation medium of B16M-F10 cultures. To be noted: throughout the culture time. In kind it is in vitro ADME.
Data set [5] can be described thus: Extravascular (tissue) levels after intravenous administration in mice. The conditions noted are these: 20 mg/kg i.v. The arrangement: unit not given here. Format: in vivo. As to the method: For the pharmacokinetic studies and for the daily treatment, the mice were administered i.v. (via the jugular vein, where a permanent catheter had previously been fixed by surgical methods; i.v. administration was carried out slowly for 1 minute), and orally (via stomach tube), 20 mg/kg of t-PTER (dissolved in ethanol 0.5 ml/kg of animal weight) or QUER (dissolved in dimethylsulfoxide:saline, 1:0.5 0.15 ml/kg of weight). In general, the compositions based on a combination of PTER and QUER can contain, as excipients, those stated previously or any others that are pharmaceutically acceptable. The presentation of said compositions can be, non-limitatively, in the form of solids such as tablets, capsules, pellets, pills, etc. and liquid presentations such as drops, syrups, injectables, etc. Moreover, the active principles (PTER and QUER) of the composition can be in their uncombined forms or in the form of pharmaceutically acceptable salts, including esters. The t-PTER was synthesized in our laboratory following standardized reactions of Wittig and Heck (www.orgsyn.org), whereas the QUER was obtained from Sigma Chemical Co. (San Luis, Mo., USA). The ^3H-t-PTER (2.2 Ci/mmol), labeled in the ortho and para positions of the benzene rings, was prepared in our laboratory according to a method similar to that used for the deuteration of phenols (18). ^14C-QUER (50 mCi/mmol), labeled in position 4 of the carbon ring, was obtained from the NCI Radiochemical Carcinogen Repository of Chemsyn Laboratories (Kansas City, Mo., USA). The radioactivity was measured using a Varisette 2700 TR analyzer from Packard. Blood was collected by means of the catheter in 1-ml syringes that contained heparin sodium (0.05 ml of a 5% solution in […]). The plasma and the erythrocytes were separated as described previously (19).
To supplement the pharmacokinetics in plasma/blood, we also evaluated the bioavailability of PTER and QUER in extravascular tissues. […] Therefore, it appears that neither of the polyphenols is subject to extravascular accumulation and that their presence in various tissues (Table 2) is parallel in time to their bioavailability in the bloodstream (FIG. 1).
The animals were treated with t-PTER or QUER (20 mg/kg, containing 5 μCi of ^3H-t-PTER or 2 μCi ^14C-QUER). A group of 4-5 mice was sacrificed at each time point. Not detectable=n.d. *P<0.01 comparing the data obtained at 10-60 minutes with the data found 5 minutes after administration of the polyphenol.

Data set [6] has as its system B16M-F10/Tet-Bcl-2 cells. In words: In vivo microscopy: B16M-F10/Tet-Bcl-2 cells adhering to the HSE and intact cells. The arrangement: species or system mice. To be noted: for Intact cells: B16M-F10/Tet-Bcl-2, 6 hours postinjection, none 85 ± 13; for Number of cells adhering to the HSE: B16M-F10/Tet-Bcl-2 precultured with polyphenols, 60 minutes postinjection, none 42 ± 6. As to the method: as §1, §2

The conditions of data set [7]: rabbits, i.v., cited from earlier work.
Data set [8] concerns B16M-F10 cells / HSE. The conditions noted are these: as described previously (ref. 14); cited from earlier work.
Data set [9] relates to VCAM-1. To be noted: cited from earlier work.

Marks after values point to notes of the source that are not given here.

As to `COc1cc(/C=C/c2ccc(O)cc2)cc(OC)c1` [PTER, pterostilbene], in data set [1], the Volume of metastases is recorded as 14 ± 4** percentage of liver volume and the Density of metastases is reported as 18 ± 4** number of foci/100 mm^3. Moreover, the “Survival of the carrier” value in data set [2] was 12 ± 2 days. For the same compound, in [3], the Intact cells was 85 ± 17 percentage of cells adhering t and the “Number of cells adhering to the HSE” value was 20 ± 5** average number per lobe. The “total levels of free polyphenols in the incubation medium (metabolism by cancer cells)” value in data set [4] is “remained unchanged”. Moreover, in [5] (5 min), the “Extravascular level, Brain” value is recorded as 5 ± 1; the “Extravascular level, Kidney” value worked out at 3 ± 1; the “Extravascular level, Liver” value turned out to be 14 ± 4; the “Extravascular level, Lung” value is reported as 36 ± 6. Further, in data set [5] (10 min), the “Extravascular level, Brain” value was 2 ± 0.5*; the “Extravascular level, Kidney” value was 3 ± 0.3; the “Extravascular level, Liver” value was 7 ± 1*; the “Extravascular level, Lung” value was 15 ± 3*. Moreover, in data set [5] (30 min), the “Extravascular level, Kidney” value is listed as 2 ± 0.4*; the “Extravascular level, Liver” value is 3 ± 0.5*; the “Extravascular level, Lung” value is given as 6 ± 1*. In data set [5] (60 min), the “Extravascular level, Kidney” value is given as 1 ± 0.3* and the “Extravascular level, Lung” value is 2 ± 1*. For the same compound, in data set [6], the Intact cells is given as 91 ± 20 percentage of cells adhering t and the “Number of cells adhering to the HSE” value is 21 ± 4** average number per lobe.

In the case of `O=c1c(O)c(-c2ccc(O)c(O)c2)oc2cc(O)cc(O)c12` [QUER, quercetin], in data set [1], the Volume of metastases is 12 ± 3** percentage of liver volume and the Density of metastases was 15 ± 4** number of foci/100 mm^3. Besides, the “Survival of the carrier” value in [2] was determined as 13 ± 2 days. Also, in data set [3], the Intact cells is on record as 52 ± 8** percentage of cells adhering t and the “Number of cells adhering to the HSE” value is 46 ± 9 average number per lobe. In addition, in data set [4], the “total levels of free polyphenols in the incubation medium (metabolism by cancer cells)” value was “remained unchanged”. In [5] (5 min), the “Extravascular level, Brain” value was found to be 4 ± 1; the “Extravascular level, Kidney” value is listed as 1 ± 0.2; the “Extravascular level, Liver” value was 9 ± 3; the “Extravascular level, Lung” value amounted to 15 ± 3. For the same compound, in data set [5] (10 min), the “Extravascular level, Brain” value is listed as 2 ± 0.4*; the “Extravascular level, Kidney” value was found to be 1 ± 0.5; the “Extravascular level, Liver” value is on record as 3 ± 1*^; the “Extravascular level, Lung” value is 8 ± 2*. Besides, in [5] (30 min), the “Extravascular level, Liver” value was 1 ± 0.2* and the “Extravascular level, Lung” value is on record as 2 ± 0.6*. Moreover, in data set [6], the Intact cells is listed as 87 ± 13^++ percentage of cells adhering t and the “Number of cells adhering to the HSE” value turned out to be 40 ± 7 average number per lobe. Further, in data set [7] (5 minutes after administration), the “highest concentration in plasma” value is roughly 43 µM. In data set [7], the “time in which plasma concentration falls to ~1 μM” value is 60 min.

Consider `Oc1ccc(C=Cc2cc(O)cc(O)c2)cc1` [RESV, resveratrol, reference compound], for which, in data set [8], the “effect on HSE-induced cytotoxicity on the metastatic cells” value is on record as “without increasing the HSE-induced cytotoxicity”. For the same compound, the “concentration at which expression of VCAM-1 is inhibited” value in [9] was 1 µM.

The record behind these values is patent publication US8227510B2, “Combine use of pterostilbene and quercetin for the production of cancer treatment medicaments” (Universitat de Valencia, priority 2004, dated 2012).
